Assays:
Huh7 = assay: Alamar Blue proliferation assay, Huh7; assay type: cell-based; conditions: Homo sapiens, Huh-7, 96 h; Huh7, 0-40 μM, 0.5% serum, 4 days; read-out: IC50 for growth inhibition
Experimental: (§1) The effect of SR13904 on the proliferation of these cell lines was determined by an Alamar Blue assay. Exponentially growing cells were treated with a range of SR13904 concentrations (0-40 μM; in 0.5% serum) over 4 days and proliferation curves were determined. The IC50 values for growth inhibition by SR13904 for each cell line were determined. […] In addition, colony formation assays with SR13904 were performed with both A549 and Huh7 cells.

A549 cells = assay: Apoptosis, Cell Death Detection ELISA (DNA fragmentation) in A549 cells; assay type: cell-based, human; conditions: A549, 0.5% serum, SR13904 15 μM, 40 h
Experimental: Referring now to FIG. 6, SR13904 treatment of cancer cells results in increased apoptosis. A549 cells (2×10^4 cells/well) were incubated in 0.5% media (96 well plates) SR13904 for 40 h. The relative degrees of apoptosis were determined using a Cell Death Detection ELISA (Roche). SR represents SR13904. ***p=<0.001 SR vs. SR+GW501.
SR13904 treatment results in increased apoptosis. Down-regulation of PPARδ, either by genetic knockout or by the treatment with 13-S—HODE (15-lipoxygenase-1 product), induces apoptosis in colorectal cancer cells. The effects of SR13904 (15 μM) GW501 (1 μM) on survival of A549 cells (0.5% serum) was determined. Relative degrees of apoptosis were measured using a DNA fragmentation assay.

PPARγ LBD = biological target: T1, PPARγ LBD (Homo sapiens, UniProt P37231); assay: PPARγ LBD binding and transactivation (ciglitazone competition); assay type: cell-based; conditions: data not shown
T1 construct: expressed in transfected cells; host or cells: U2-OS (inferred from the general testing procedure)
T1 sequence (P37231 238-503 limits assumed): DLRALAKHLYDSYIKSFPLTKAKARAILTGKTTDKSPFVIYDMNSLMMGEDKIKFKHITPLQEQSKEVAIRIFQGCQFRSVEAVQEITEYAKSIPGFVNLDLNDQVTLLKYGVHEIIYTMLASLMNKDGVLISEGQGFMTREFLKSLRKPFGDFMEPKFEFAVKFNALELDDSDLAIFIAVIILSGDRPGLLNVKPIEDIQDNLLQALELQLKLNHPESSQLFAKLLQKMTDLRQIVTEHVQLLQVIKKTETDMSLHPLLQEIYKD
Description: Based on the cellular and molecular data generated, treatment of prostate cancer cells with SR 13904 attenuates a number of pro-tumorigenic activities that are likely to be associated with PPARδ. Furthermore, this nuclear receptor is now believed to be a master regulator of nuclear receptors, including both PPARγ and PPARα, and as such the inhibition of PPARδ activity modulates the other target transcription factors.

[1] = Proliferation assay of Table 2 (cell line not stated); assay type: cell-based; conditions: concentration that inhibits cell viability (or growth) by 50% relative to vehicle control; read-out: Prolif IC50
Experimental: The LANTHA SCREEN™ TR-FRET PPARδ Competitive Binding Assay was conducted for a variety of compounds according to the instructions provided by the manufacturer (Invitrogen). In addition, proliferation assays were conducted. In Table 2, “Prolif IC50” is the concentration that inhibits cell viability (or growth) by 50% relative to a vehicle control, and “TR-F binding IC50 (μM)” is the concentration that competes binding by a labeled pan-agonist to the ligand binding domain of PPAR delta, by 50%.

PC-3 cells = assay: Alamar Blue proliferation assay, PC-3; assay type: cell-based; conditions: Homo sapiens, 96 h; PC-3, 0-40 μM, 0.5% serum, 4 days; read-out: IC50 for growth inhibition
Experimental: as §1

Akt1 = assay: Western analysis of phosphorylated Akt1 in growth factor-deprived PC-3 cultures; assay type: cell-based, human; conditions: PC-3, 48 h growth factor withdrawal; VLDL 2 μg/ml + LPL 2 μg/ml and/or 10 μM SR13904
Experimental: The ability of SR 13904 to regulate the cell survival Akt1 signaling pathway was assessed. PC-3 cultures were exposed to apoptosis-inducing growth factor deprivation and harvested for Western analysis of phosphorylated Akt1 and total PTEN protein. PTEN is known to inhibit the Akt1 pathway at the level of PI3-kinase. […] Subsequent studies confirmed this conclusion.
Referring to FIG. 8, PC-3 cells were exposed to 48 h of growth factor withdrawal with and without VLDL SR 13904 (2 μg/ml VLDL+2 μg/ml LPL and/or 10 μM SR13904). Standard western analysis for phospho-serine 473, phospho-tyrosine 308, and PTEN were performed. GAPDH was used as a control.

SMILES: Cc1cc(SCc2sc(-c3cccc4ccccc34)nc2C)ccc1OCC(=O)O [SR 13904]
- IC50 (Huh7): 8 to 10 µM
- apoptosis (DNA fragmentation) (A549 cells): significant apoptotic effect
- interference with ciglitazone binding to PPARγ LBD and transactivation (PPARγ LBD): interfere with ciglitazone binding
- IC50 [1]: 12 µM
- IC50 (PC-3 cells): > 30 µM
- phosphorylation of serine 473 and tyrosine 308 on the Akt1 protein (Akt1): completely abolished
